The source of these data is patent publication US11046699B2, “Pyrazolo-pyrimidin-amino-cycloalkyl compounds and their therapeutic uses” (RAPT THERAPEUTICS, INC., priority 2018, dated 2021).

One assay deals with GCN2 (Homo sapiens, UniProt Q9P2K8). As to the kind of experiment: GCN2 enzymatic endpoint assay: phosphorylation of GFP-eIF2α measured by TR-FRET (Lanthascreen). It counts as biochemical. As to conditions: GCN2 biochemical IC50; 4 nM GCN2, 2 μM ATP, 80 nM GFP-eIF2α, 90 min RT; read-out: GCN2 activity. The protocol: The Enzymatic assay was run as an endpoint assay to quantify the activity of the serine/threonine GCN2 kinase by way of measuring phosphorylation of its natural substrate, eiF2α.
Chain of GCN2 (Q9P2K8 whole entry): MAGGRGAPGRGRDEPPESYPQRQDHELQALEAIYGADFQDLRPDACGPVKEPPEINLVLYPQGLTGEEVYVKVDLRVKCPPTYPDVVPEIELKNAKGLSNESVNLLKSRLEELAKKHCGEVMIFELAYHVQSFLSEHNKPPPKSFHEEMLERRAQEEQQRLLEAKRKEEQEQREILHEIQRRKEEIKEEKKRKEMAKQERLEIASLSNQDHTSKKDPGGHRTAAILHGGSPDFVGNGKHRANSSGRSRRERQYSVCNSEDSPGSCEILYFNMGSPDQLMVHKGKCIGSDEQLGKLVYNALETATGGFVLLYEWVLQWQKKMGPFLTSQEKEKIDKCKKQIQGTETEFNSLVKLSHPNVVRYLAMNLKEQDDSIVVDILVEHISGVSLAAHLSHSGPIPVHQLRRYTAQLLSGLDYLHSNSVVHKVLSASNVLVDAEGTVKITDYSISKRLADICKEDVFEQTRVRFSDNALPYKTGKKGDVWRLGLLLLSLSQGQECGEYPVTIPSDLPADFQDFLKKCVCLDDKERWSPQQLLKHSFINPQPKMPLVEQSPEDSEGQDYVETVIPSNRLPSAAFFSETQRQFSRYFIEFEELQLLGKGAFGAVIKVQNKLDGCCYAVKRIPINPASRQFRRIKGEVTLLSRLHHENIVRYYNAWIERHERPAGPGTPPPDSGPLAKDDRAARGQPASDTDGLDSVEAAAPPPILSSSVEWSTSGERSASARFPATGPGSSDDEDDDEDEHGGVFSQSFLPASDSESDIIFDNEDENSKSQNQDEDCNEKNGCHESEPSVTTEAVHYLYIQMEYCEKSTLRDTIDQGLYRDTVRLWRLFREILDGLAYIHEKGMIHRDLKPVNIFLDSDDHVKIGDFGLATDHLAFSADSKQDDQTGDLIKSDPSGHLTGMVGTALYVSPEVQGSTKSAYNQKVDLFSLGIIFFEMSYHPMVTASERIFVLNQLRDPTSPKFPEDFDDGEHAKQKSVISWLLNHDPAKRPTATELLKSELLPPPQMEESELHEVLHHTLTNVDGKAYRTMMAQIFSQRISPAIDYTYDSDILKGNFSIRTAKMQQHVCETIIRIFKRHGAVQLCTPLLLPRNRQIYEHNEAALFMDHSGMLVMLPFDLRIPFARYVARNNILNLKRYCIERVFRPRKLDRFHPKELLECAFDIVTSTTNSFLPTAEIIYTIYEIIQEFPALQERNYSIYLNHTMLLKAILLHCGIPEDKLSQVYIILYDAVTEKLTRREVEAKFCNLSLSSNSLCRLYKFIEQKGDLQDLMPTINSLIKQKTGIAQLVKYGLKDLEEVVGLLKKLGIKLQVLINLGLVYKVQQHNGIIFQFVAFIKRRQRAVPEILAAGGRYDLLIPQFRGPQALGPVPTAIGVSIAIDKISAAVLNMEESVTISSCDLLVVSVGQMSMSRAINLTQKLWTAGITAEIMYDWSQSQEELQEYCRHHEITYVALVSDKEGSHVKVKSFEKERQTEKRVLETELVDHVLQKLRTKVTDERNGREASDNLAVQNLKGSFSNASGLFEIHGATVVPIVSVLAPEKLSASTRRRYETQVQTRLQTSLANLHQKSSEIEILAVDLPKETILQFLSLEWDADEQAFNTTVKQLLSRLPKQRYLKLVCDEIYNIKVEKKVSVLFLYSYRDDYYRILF
The enzymatic reaction was initiated by incubating with 2 μM ATP and 80 nM of GFP labeled eiF2a substrate at room temperature and then stopped after 90 minutes with EDTA. The amount of phosphorylated eIF2α is determined by TR-FRET (Lanthascreen). A terbium labeled antibody associates with the phosphorylated substrate resulting in an increased TR-FRET value. Activity was calculated as the ratio of the acceptor (fluorescein) signal at 520 nm wavelength to the donor (terbium) signal 495 nm. The amount of antibody that is bound to the tracer is directly proportional to the amount of phosphorylated substrate present, and in this manner, kinase activity can be detected and measured by an increase in the TR-FRET value.
Compound addition by D300
5 μL enzyme solution in assay buffer
5 μL substrate/ATP mixture in assay buffer
5 μL stop/detection mix in antibody dilution buffer
Background: TR-FRET usually uses a lanthanide donor and a delayed reading to cut background.
With `CNC(=O)[C@]1(C)CC[C@@H](Nc2ncc3c(Br)nn(-c4ccc5nccnc5c4)c3n2)C1` (single isomer, unassigned) [Example 11], the IC50 is 25 to 200 nM. Still for that read-out and setting: then `CNC(=O)[C@]1(C)CC[C@@H](Nc2ncc3c(Br)nn(-c4cc(C#N)c5c(c4)CCO5)c3n2)C1` [Example 50, (1R,3R)-3-((3-bromo-1-(7-cyano-2,3-dihydrobenzofuran-5-yl)-lH-pyrazolo[3,4-d]pyrimidin-6-yl)amino)-N,1-dimethylcyclopentane-1-carboxamide; 2,2,2-trifluoroacetic acid], with 25 to 200 nM; and `CNC(=O)[C@]1(CC(F)F)CC[C@@H](Nc2ncc3c(Br)nn(-c4ccc5nccnc5c4)c3n2)C1` [Example 51, (1R,3R)-3-((3-bromo-1-(quinoxalin-6-yl)-1H-pyrazolo[3,4-d]pyrimidin-6-yl)amino)-1-(2,2-difluoroethyl)-N-methylcyclopentane-1-carboxamide; 2,2,2-trifluoroacetic acid], with 25 to 200 nM; and `CNC(=O)[C@]1(CC(F)F)CC[C@@H](Nc2ncc3c(Br)nn(-c4ccc(-c5nnc(C)s5)cc4)c3n2)C1` [Example 39, (1R,3R)-3-((3-bromo-1-(4-(5-methyl-1,3,4-thiadiazol-2-yl)phenyl)-1H-pyrazolo[3,4-d]pyrimidin-6-yl)amino)-1-(2,2-difluoroethyl)-N-methylcyclopentane-1-carboxamide; 2,2,2-trifluoroacetic acid], with under 25 nM. Take `CNS(=O)(=O)[C@@H]1CC[C@@H](Nc2ncc3c(Br)nn(-c4ccc(-c5nnc(C)s5)cc4)c3n2)C1` [Example 68, (1R,3R)-3-((3-bromo-1-(4-(5-methyl-1,3,4-thiadiazol-2-yl)phenyl)-1H-pyrazolo[3,4-d]pyrimidin-6-yl)amino)-N-methylcyclopentane-1-sulfonamide]: the IC50 was under 25 nM.

The assay is the same for the next values; noted with them: tested as described in Example 77; compound and/or hydrochloride, dihydrochloride or trifluoroacetic acid salt; read-out: IC 50 Activity.
Regarding `CNC(=O)[C@]1(C)CC[C@@H](Nc2ncc3c(Br)nn(-c4cccc(NC(=O)c5cncnc5)c4)c3n2)C1` [N-[3-[3-bromo-6-[[(1R,3R)-3-methyl-3-(methylcarbamoyl)cyclopentyl]amino]pyrazolo[3,4-d]pyrimidin-1-yl]phenyl] pyrimidine-5-carboxamide], the IC50 was in the range of 25 to 200 nM.

For `CNC(=O)C1(C)CC[C@@H](Nc2ncc3c(Br)nn(-c4ccc5nc(C(C)(C)O)ccc5c4)c3n2)C1` (stereo partly drawn) [(3R)-3-[[3-bromo-1-[2-(1-hydroxy-1-methyl-ethyl)-6-quinolyl]pyrazolo[3,4-d]pyrimidin-6-yl]amino]-N,1-dimethyl-cyclopentane-carboxamide], the IC50 was 25 to 200 nM.

As to `CNC(=O)[C@H]1CC[C@@H](Nc2ncc3c(Br)nn(-c4ccc5nc(OC)ccc5c4)c3n2)C1` [(1S,3R)-3-[[3-bromo-1-(2-methoxy-6-quinolyl)pyrazolo[3,4-d]pyrimidin-6-yl]amino]-N-methyl-cyclopentanecarboxamide], the IC50 fell in the range of 25 to 200 nM. `C[C@]1(NC(=O)[C@@H]2CC[C@@H](Nc3ncc4c(Br)nn(-c5ccc6ncccc6c5)c4n3)C2)C[C@H](O)C1`: the IC50 lay within 25 to 200 nM. With `CNC(=O)[C@@H]1CC[C@@H](Nc2ncc3c(Br)nn(-c4cc(F)c5nc(C)c(F)cc5c4)c3n2)C1` [(1R,3R)-3-((3-bromo-1-(3,8-difluoro-2-methyl-quinolin-6-yl)-1H-pyrazolo[3,4-d]pyrimidin-6-yl)amino)-N-methylcyclopentane-1-carboxamide], the IC50 is 25 to 200 nM. Still for that read-out and setting: the same measure for `CNC(=O)[C@]1(C)CC[C@@H](Nc2ncc3c(Br)nn(-c4cc(C#N)cc(CNS(C)(=O)=O)c4)c3n2)C1`: 25 to 200 nM; for `CNC(=O)[C@]1(C)CC[C@@H](Nc2ncc3c(Br)nn(-c4cc([C@H](C)N)c5nccnc5c4)c3n2)C1` [(1R,3R)-3-[[1-[8-[(1S)-1-aminoethyl]quinoxalin-6-yl]-3-bromo-pyrazolo [3,4-d]pyrimidin-6-yl]amino]-N,1-dimethyl-cyclopentanecarboxamide]: 25 to 200 nM. With `CNC(=O)[C@]1(CC(=O)N(C)C)CC[C@@H](Nc2ncc3c(Br)nn(-c4cc(F)c5ncccc5c4)c3n2)C1` [(1R,3R)-3-[[3-bromo-1-(8-fluoro-6-quinolyl)pyrazolo[3,4-d]pyrimidin-6-yl]amino]-1-[2-(dimethylamino)-2-oxo-ethyl]-N-methyl-cyclopentanecarboxamide], the IC50 is under 25 nM. Take `N#Cc1cc(-n2nc(Br)c3cnc(N[C@@H]4CC[C@@H](C(=O)N[C@@H]5CCNC5)C4)nc32)cc2cccnc12` [(1R,3R)-3-((3-bromo-1-(8-cyanoquinolin-6-yl)-1H-pyrazolo[3,4-d]pyrimidin-6-yl)amino)-N-((R)-pyrrolidin-3-yl)cyclopentane-1-carboxamide]: the IC50 is under 25 nM.

For the molecule `Cc1nnc(-c2ccc(-n3nc(Br)c4cnc(N[C@@H]5CCOC5)nc43)cc2)s1` [3-bromo-1-[4-(5-methyl-1,3,4-thiadiazol-2-yl)phenyl]-N-[(3R)-tetrahydrofuran-3-yl] pyrazolo[3,4-d]pyrimidin-6-amine], the IC50 fell in the range of 25 to 200 nM. `CNC(=O)[C@]1(C)CC[C@@H](Nc2ncc3c(Br)nn(-c4ccc(-c5nnc(C)s5)c(CC(O)C(F)(F)F)c4)c3n2)C1` (stereo partly drawn) [(1R,3R)-3-[[3-bromo-1-[4-(5-methyl-1,3,4-thiadiazol-2-yl)-3-(3,3,3-trifluoro-2-hydroxy-propyl)phenyl]pyrazolo[3,4-d]pyrimidin-6-yl]amino]-N,1-dimethyl-cyclopentane-carboxamide]: the IC50 was 25 to 200 nM. Still for that read-out and setting: then `CC1(C(=O)NC2(C#N)CC2)CC[C@@H](Nc2ncc3c(Br)nn(-c4cc(F)c5ncccc5c4)c3n2)C1` (stereo partly drawn) [(3R)-3-[[3-bromo-1-(8-fluoro-6-quinolyl)pyrazolo[3,4-d]pyrimidin-6-yl]amino]-N-(1-cyanocyclopropyl)-1-methyl-cyclopentane-carboxamide], with under 25 nM; and `CNC(=O)[C@]1(C)CC[C@@H](Nc2ncc3c(Br)nn(-c4ccc(-c5nnc(C(C)C)o5)cc4)c3n2)C1` [(1R,3R)-3-[[3-bromo-1-[4-(5-isopropyl-1,3,4-oxadiazol-2-yl)phenyl]pyrazolo[3,4-d]pyrimidin-6-yl]amino]-N,1-dimethyl-cyclopentanecarboxamide], with 25 to 200 nM. Take `CNS(=O)(=O)C1CC[C@@H](Nc2ncc3c(Br)nn(-c4ccc(-c5nnc(C)s5)c(C#N)c4)c3n2)C1` (stereo partly drawn) [(3R)-3-[[3-bromo-1-[3-cyano-4-(5-methyl-1,3,4-thiadiazol-2-yl)phenyl]pyrazolo[3,4-d]pyrimidin-6-yl]amino]-N-methyl-cyclopentanesulfonamide]: the IC50 was 25 to 200 nM. On the same count and under the same terms, the same measure for `CO[C@@H]1CC[C@@H](Nc2ncc3c(Br)nn(-c4cc(F)c5ncccc5c4)c3n2)C1` [3-bromo-1-(8-fluoro-6-quinolyl)-N-[(1R,3R)-3-methoxycyclopentyl]pyrazolo[3,4-d] pyrimidin-6-amine]: 25 to 200 nM; for `CNC(=O)[C@]1(C)CC[C@@H](Nc2ncc3c(Br)nn(-c4cc(C#N)cc(CS(C)(=O)=O)c4)c3n2)C1`: 25 to 200 nM; for `Cc1nnc(-c2ccc(-n3nc(Br)c4cnc(N[C@@H]5CC[C@@](C)(C(=O)N6CCP(C)(=O)CC6)C5)nc43)cc2)s1`: 25 to 200 nM. Still for that read-out and setting: then `CNC(=O)[C@]1(C)CC[C@@H](Nc2ncc3c(Br)nn(-c4cc(CN5C(=O)CNCC5=O)c5ncccc5c4)c3n2)C1` [(1R,3R)-3-[[3-bromo-1-[8-[(2,6-dioxo-piperazin-1-yl)methyl]-6-quinolyl]pyrazolo [3,4-d]pyrimidin-6-yl]amino]-N,1-dimethyl-cyclopentanecarboxamide], with 25 to 200 nM; and `O=C1CN(C(=O)[C@@H]2CC[C@@H](Nc3ncc4c(Br)nn(-c5cc(F)c6ncccc6c5)c4n3)C2)CCN1` [4-((1R,3R)-3-((3-bromo-1-(8-fluoroquinolin-6-yl)-1H-pyrazolo[3,4-d]pyrimidin-6-yl)amino)cyclopentane-1-carbonyl)piperazin-2-one], with 25 to 200 nM. Still for that read-out and setting: the same measure for `Cc1nnc(-c2ccc(-n3nc(Br)c4cnc(N[C@@H]5CCC(C)(C(=O)N6CCOCC6)C5)nc43)cc2)o1` (stereo partly drawn) [[(3R)-3-[[3-bromo-1-[4-(5-methyl-1,3,4-oxadiazol-2-yl)phenyl]pyrazolo[3,4-d]pyrimidin-6-yl]amino]-1-methyl-cyclopentyl]-morpholino-methanone]: 25 to 200 nM; for `CNC(=O)[C@]1(C)CC[C@@H](Nc2ncc3c(Br)nn(-c4ccc5nc(N6CCCC6)ncc5c4)c3n2)C1`: 25 to 200 nM; for `CNC(=O)[C@]1(C)CC[C@@H](Nc2ncc3c(Br)nn(-c4cc(C5=CCNC5)c5ncccc5c4)c3n2)C1` [(1R,3R)-3-[[3-bromo-1-[8-(2,5-dihydro-1H-pyrrol-3-yl)-6-quinolyl]pyrazolo [3,4-d]pyrimidin-6-yl]amino]-N,1-dimethyl-cyclopentanecarboxamide]: 25 to 200 nM. In the case of `CNC(=O)C1(C)CC[C@@H](Nc2ncc3c(Br)nn(-c4ccc(Cn5ccnc5)cc4)c3n2)C1` (stereo partly drawn) [(3R)-3-[[3-bromo-1-[4-(imidazol-1-ylmethyl)phenyl]pyrazolo[3,4-d]pyrimidin-6-yl]amino]-N,1-dimethyl-cyclopentanecarboxamide], the IC50 is 25 to 200 nM. `O=C([C@@H]1CC[C@@H](Nc2ncc3c(Br)nn(-c4ccc5ncccc5c4)c3n2)C1)N1CCN(CCO)CC1` [((1R,3R)-3-((3-bromo-1-(quinolin-6-yl)-1H-pyrazolo[3,4-d]pyrimidin-6-yl)amino)cyclopentyl)(4-(2-hydroxyethyl)piperazin-1-yl)methanone]: the IC50 is 25 to 200 nM.
